Our source for the IC50 and inhibition values is patent US8134015B2, “Compound inhibiting in vivo phosphorous transport and medicine containing the same” (Kyowa Hakko Kirin Co., Ltd., priority 2003, dated 2012).

Structures are written as SMILES.

For the first assay, the target named is T1, rat NaPi-2b (Rattus norvegicus, UniProt Q9JJ09).
T1 construct: expressed in transfected cells; host or cells: Xenopus oocytes injected with cRNA
T1 sequence (Q9JJ09 1-695): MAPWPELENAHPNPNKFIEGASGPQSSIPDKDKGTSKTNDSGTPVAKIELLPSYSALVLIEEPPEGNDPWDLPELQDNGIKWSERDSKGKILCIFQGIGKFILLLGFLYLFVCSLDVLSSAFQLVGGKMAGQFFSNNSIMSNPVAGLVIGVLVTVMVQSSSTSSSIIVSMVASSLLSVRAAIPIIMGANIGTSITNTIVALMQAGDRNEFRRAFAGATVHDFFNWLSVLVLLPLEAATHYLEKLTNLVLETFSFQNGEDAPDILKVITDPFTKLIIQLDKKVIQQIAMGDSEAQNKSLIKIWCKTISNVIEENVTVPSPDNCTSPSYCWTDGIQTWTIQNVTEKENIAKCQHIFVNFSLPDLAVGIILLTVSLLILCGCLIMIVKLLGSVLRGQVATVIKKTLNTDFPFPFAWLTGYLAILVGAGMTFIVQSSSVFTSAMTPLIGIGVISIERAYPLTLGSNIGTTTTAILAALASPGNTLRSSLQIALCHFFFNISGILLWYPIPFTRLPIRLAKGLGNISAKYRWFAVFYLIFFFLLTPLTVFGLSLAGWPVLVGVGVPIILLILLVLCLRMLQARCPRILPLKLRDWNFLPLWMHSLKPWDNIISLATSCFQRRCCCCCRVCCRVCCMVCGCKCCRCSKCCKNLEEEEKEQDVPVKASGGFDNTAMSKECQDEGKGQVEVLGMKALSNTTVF
Put plainly: Sodium-dependent phosphate uptake of Xenopus oocytes which expressed NaPi-2b (32P). To be noted: Xenopus oocytes expressing rat NaPi-2b, 32P radioactive phosphorus; read-out: IC50 (phosphate uptake inhibitory activity). The class given is cell-based. In short, it runs like this: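 Inhibition at 300 μM and 100 μM was read off one inhibition curve of 32P phosphate uptake. Uptake was measured in Xenopus oocytes cultured 2 days after injection of cRNA for cloned rat NaPi-2b.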
On to `CCN(CCO)Cc1cccc(C(=O)Nc2ccc(Cl)cc2C(=O)N/N=C/c2ccc(C)cc2)c1` [Compound 425, N-[4-Chloro-2-(4-methyl-benzylidene-hydrazinocarbonyl)-phenyl]-3-{[ethyl-(2-hydroxy-ethyl)-amino]-methyl}-benzamide], for which the IC50 (in general, the concentration at which inhibition is half-maximal) is less than 3 µM.
On the same count and under the same terms, the value for `COc1ccc(/C=N/NC(=O)c2cc(OCCCCF)ccc2NC(=O)c2cccc(CSCCO)c2)cc1` [Compound 1055, N-[4-(4-Fluoro-butoxy)-2-(4-methoxy-benzylidene-hydrazinocarbonyl)-phenyl]-3-(2-hydroxy-ethylsulfanylmethyl)-benzamide] was 1.96 µM; that for `Cc1ccc(/C=N/NC(=O)c2cc(Cl)ccc2NC(=O)c2cccc(CSc3nnnn3CCN(C)C)c2)cc1C` [Compound 466, N-[4-Chloro-2-(3,4-dimethyl-benzylidene-hydrazinocarbonyl)-phenyl]-3-[1-(2-dimethylamino-ethyl)-1H-tetrazol-5-ylsulfanylmethyl]-benzamide] was less than 3 µM; that for `COc1ccc(C(=O)Nc2cc(OC)c(OC)cc2C(=O)N/N=C/c2ccccc2)cc1OC` [Compound 227, N-[2-(Benzylidene-hydrazinocarbonyl)-4,5-dimethoxy-phenyl]-3,4-dimethoxy-benzamide] was 7.4 µM.
Still for that read-out and setting: to `CN(CCO)Cc1ccc(C(=O)Nc2ccc(Cl)cc2C(=O)N/N=C/c2cccc(F)c2)cc1` [Compound 412, N-[4-Chloro-2-(3-fluoro-benzylidene-hydrazinocarbonyl)-phenyl]-4-{[(2-hydroxy-ethyl)-methyl-amino]-methyl}-benzamide] belongs 7.96 µM; to `COc1cc(OC)cc(C(=O)Nc2ccc(Br)cc2C(=O)N/N=C/c2cccc(Cl)c2)c1` [Compound 116, N-[4-Bromo-2-(3-chloro-benzylidene-hydrazinocarbonyl)-phenyl]-3,5-dimethoxy-benzamide], 7.01 µM.
With `COCCOc1cc(NC(=O)c2cccc(CSCC(O)CO)c2)c(C(=O)N/N=C/c2cccc(F)c2)cc1OCCOC` (stereo not shown) [Compound 1013, 3-(2,3-Dihydroxy-propylsulfanylmethyl)-N-[2-(3-fluoro-benzylidene-hydrazinocarbonyl)-4,5-bis-(2-methoxy-ethoxy)-phenyl]-benzamide], the IC50 was 8.89 µM.
Still for that read-out and setting: to `CCN(CC)CCN(C)Cc1cccc(C(=O)Nc2scc(C)c2C(=O)N/N=C/c2ccc(C)c(C)c2)c1` [Compound 563, 3-{[(2-Diethylamino-ethyl)-methyl-amino]-methyl}-N-[3-(3,4-dimethyl-benzylidene-hydrazinocarbonyl)-4-methyl-thiophen-2-yl]-benzamide] belongs less than 1 µM; to `COc1ccc(C(=O)Nc2ccc(Br)cc2C(=O)NNCc2ccc(C)cc2)cc1OC` [Compound 367, N-{4-Bromo-2-[N′-(4-methyl-benzyl)-hydrazinocarbonyl]-phenyl}-3,4-dimethoxy-benzamide], 6.88 µM; to `CCN(CC)CCN(C)Cc1cccc(C(=O)Nc2cc(OCCOC)c(OCCOC)cc2C(=O)N/N=C/c2ccc(C)c(C)c2)c1` [Compound 1030, 3-{[(2-Diethylamino-ethyl)-methyl-amino]-methyl}-N-[2-(3,4-dimethyl-benzylidene-hydrazinocarbonyl)-4,5-bis-(2-methoxy-ethoxy)-phenyl]-benzamide], 14.2 µM.
On the same count and under the same terms, the value for `Cc1ccc(/C=N/NC(=O)c2c(C)csc2NC(=O)c2cccc(CN3CCC(N4CCCCC4)CC3)c2)cc1` [Compound 570, 3-[1,4′]Bipiperidinyl-1′-ylmethyl-N-[4-methyl-3-(4-methyl-benzylidene-hydrazinocarbonyl)-thiophen-2-yl]-benzamide] was 6.04 µM; that for `O=C(Nc1ccc(Br)cc1C(=O)N/N=C/c1ccc(Cl)c(C(F)(F)F)c1)c1ccc(CSCCO)cc1` [Compound 266, N-[4-Bromo-2-(4-chloro-3-trifluoromethyl-benzylidene-hydrazinocarbonyl)-phenyl]-4-(2-hydroxy-ethylsulfanylmethyl)-benzamide] was less than 1 µM.
Still for that read-out and setting: to `COc1ccc(/C=N/NC(=O)c2c(C)csc2NC(=O)c2cccc(CN3CCC4(CC3)OCCO4)c2)cc1` [Compound 837, 3-(1,4-Dioxa-8-aza-spiro[4,5]dec-8-ylmethyl]-N-[3-(4-methoxy-benzylidene-hydrazinocarbonyl)-4-methyl-thiophen-2-yl]-benzamide] belongs 12.9 µM; to `Cc1ccc(/C=N/NC(=O)c2c(C)csc2NC(=O)c2cccc(CN3CCC(O)CC3)c2)cc1C` [Compound 593, N-[3-(3,4-Dimethyl-benzylidene-hydrazinocarbonyl)-4-methyl-thiophen-2-yl]-3-(4-hydroxy-piperidin-1-ylmethyl)-benzamide], less than 3 µM.
For `COc1ccc(C(=O)Nc2ccc(I)cc2C(=O)N/N=C/c2ccc(Cl)c(C(F)(F)F)c2)cc1OC` [Compound 209, N-[2-(4-Chloro-3-trifluoromethyl-benzylidene-hydrazinocarbonyl)-4-iodo-phenyl]-3,4-dimethoxy-benzamide], the IC50 is less than 1 µM.
Regarding `O=C(Nc1ccc(Cl)cc1C(=O)N/N=C/c1cccc(OCCO)c1)c1ccncc1` [Compound 351, N-{4-Chloro-2-[3-(2-hydroxy-ethoxy)-benzylidene-hydrazinocarbonyl]-phenyl}-isonicotinamide], the half-maximal inhibitory concentration (IC50) worked out at 8.96 µM.
Still for that read-out and setting: to `Cc1ccc(/C=N/NC(=O)c2cc3ccccc3cc2NC(=O)c2cccc(CN3CCN(CCO)CC3)c2)cc1` [Compound 970, 3-[4-(2-Hydroxy-ethyl)-piperazin-1-ylmethyl]-N-[3-(4-methyl-benzylidene-hydrazinocarbonyl)-naphthalen-2-yl]-benzamide] belongs less than 3 µM.
On the same count and under the same terms, to `O=C(Nc1ccc(Cl)cc1C(=O)N/N=C/C=C/c1ccccc1)c1ccncc1` [Compound 349, N-[4-Chloro-2-(3-phenyl-allylidene-hydrazinocarbonyl)-phenyl]-isonicotinamide] belongs 8.78 µM.
The same measure, in the same setting: to `CCN(CC)CCN(C)Cc1cccc(C(=O)Nc2ccc(OC)cc2C(=O)N/N=C/c2ccc(Cl)c(C(F)(F)F)c2)c1` [Compound 1023, N-[2-(4-Chloro-3-trifluoromethyl-benzylidene-hydrazinocarbonyl)-4-methoxy-phenyl]-3-{[(2-diethylamino-ethyl)-methyl-amino]-methyl}-benzamide] belongs 0.99 µM; to `Cc1ccc(/C=N/NC(=O)c2cc(Br)ccc2NC(=O)c2ccc(C)cc2)cc1` [Compound 494, N-[4-Bromo-2-(4-methyl-benzylidene-hydrazinocarbonyl)-phenyl]-4-methyl-benzamide], 2.07 µM; to `CCN(CC)CCNCc1ccc(C(=O)Nc2ccc(Br)cc2C(=O)N/N=C/c2cccc(F)c2)cc1` [Compound 296, N-[4-Bromo-2-(3-fluoro-benzylidene-hydrazinocarbonyl)-phenyl]-4-[(2-diethylamino-ethylamino)-methyl]-benzamide], 1.45 µM.
In the case of `COc1ccc(C(=O)Nc2scc(C)c2C(=O)N/N=C/c2cccc(F)c2)cc1OC` [Compound 517, N-[3-(3-Fluoro-benzylidene-hydrazinocarbonyl)-4-methyl-thiophen-2-yl]-3,4-dimethoxy-benzamide], the IC50 was found to be 1.71 µM.
On the same count and under the same terms, to `Cc1ccc(/C=N/NC(=O)c2cc(Br)ccc2NC(=O)c2cccs2)cc1C` [Compound 161, Thiophene-2-carboxylic acid [4-bromo-2-(3,4-dimethyl-benzylidene-hydrazinocarbonyl)-phenyl]-amide] belongs 0.96 µM; to `O=C(Nc1ccc(Br)cc1C(=O)N/N=C/c1ccc(Cl)c(C(F)(F)F)c1)c1ccc(CN2CCN(CC(=O)N3CCOCC3)CC2)cc1` [Compound 306, N-[4-Bromo-2-(4-chloro-3-trifluoromethyl-benzylidene-hydrazinocarbonyl)-phenyl]-4-[4-(2-morpholin-4-yl-2-oxo-ethyl)-piperazin-1-ylmethyl]-benzamide], 2.13 µM.
Still for that read-out and setting: to `O=C(Nc1ccc(Br)cc1C(=O)N/N=C/c1cccc(O)c1)c1ccc(F)cc1` [Compound 109, N-[4-Bromo-2-(3-hydroxy-benzylidene-hydrazinocarbonyl)-phenyl]-4-fluoro-benzamide] belongs 6.18 µM.

Staying with this assay, now noted: phosphate uptake, oocytes expressing rat NaPi-2b; 300 μM, determined from inhibition curve.
For the molecule `COc1ccc(C(=O)Nc2ccccc2C(=O)N/N=C/c2ccccn2)cc1OC` [Compound 245], testing at 300 µM gave an inhibition of 31.7%.
Still for that read-out and setting: the value for `COc1ccc(/C=N/NC(=O)c2c(C)csc2NC(=O)c2cccc(CSCCS(=O)(=O)O)c2)cc1` [Compound 785, 2-{3-[3-(4-Methoxy-benzylidene-hydrazinocarbonyl)-4-methyl-thiophen-2-ylcarbamoyl]-benzylsulfanyl}-ethanesulfonic acid] was 39.5%.
Regarding `COc1cccc(/C=N/NC(=O)c2cc(Br)ccc2NC(=O)c2ccc(CN(C)CC(O)c3ccc(O)cc3)cc2)c1` (stereo not shown) [Compound 727, N-[4-Bromo-2-(3-methoxy-benzylidene-hydrazinocarbonyl)-phenyl]-4-({[2-hydroxy-2-(4-hydroxy-phenyl)-ethyl]-methyl-amino}-methyl)-benzamide], the inhibition (in general, the change of the read-out against control, counted positive when it falls) at 300 µM worked out at 67.7%.
